# In patent US7018802B2, “Electrochemiluminescent enzyme immunoassay” (BioVeris Corporation, priority 1995, dated 2006):
# Where two headings read alike, the source gives them in different places.
# Legend:
# [1] = target: T1, β-lactamase I from Bacillus cereus (Bacillus cereus, UniProt P00809); format: biochemical; conditions: for ECL increase upon enzyme hydrolysis, second experiment: incubating time with enzyme 60 minutes, ampicillin with Ru(bpy)3^+2, FIG. 9
# Description: ECL properties were compared both before and after NaOH and enzymatic hydrolysis (FIG. 7).
# Following 30 minute incubations, the solutions were neutralized with 50 μL of 5 M HCl. […] Following 30 minute incubations, 50 μL of 5 M NaCl was added to these solutions.
# ECL properties were compared before and after NaOH and enzymatic hydrolysis.
# Following 30 minute incubations, the solutions were neutralized with 50 μL of 5 M HCl. […] Following 60 minute incubations, 50 μL of 5 M NaCl was added to these solutions.
# [2] = target: T1, β-lactamase I from Bacillus cereus; conditions: in words
# [3] = 3.8 μM β-lactamase I, 23.0 μM, 6-APA in equimolar mixture with Ru(bpy)3^+2 (nonconjugated), FIG. 11
# [4] = 347 nM β-lactamase I, 30 minutes, 30 μM, ampicillin in equimolar mixture with Ru(bpy)3^+2 (nonconjugated), FIG. 8
# T1 sequence (P00809 28-306): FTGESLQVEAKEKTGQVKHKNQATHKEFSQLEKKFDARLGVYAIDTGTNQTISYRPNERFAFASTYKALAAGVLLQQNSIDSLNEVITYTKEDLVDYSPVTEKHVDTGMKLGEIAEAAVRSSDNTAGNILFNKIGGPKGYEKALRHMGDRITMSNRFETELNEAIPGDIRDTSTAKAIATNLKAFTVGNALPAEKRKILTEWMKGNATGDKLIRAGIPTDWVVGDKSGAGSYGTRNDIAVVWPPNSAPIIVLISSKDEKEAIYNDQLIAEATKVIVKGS
Compound,"ECL increase upon enzyme hydrolysis [1, 3]",substrate quality for β-lactamase [2],"ECL increase upon enzyme hydrolysis [1, 4]","ECL increase upon enzyme hydrolysis, second experiment [1]"
Ru(bpy)3^+2-labeled 6-aminopenicillanic acid [Ru-APA],31.8 fold,very good substrate,,
"CC1(C)S[C@@H]2[C@H](NC(=O)[C@H](N)c3ccccc3)C(=O)N2[C@H]1C(=O)O [ampicillin, reference compound]",,,2.1 fold,2.5 fold
Ru(bpy)3^+2-labeled ampicillin [Ru-AMP],,very good substrate,9.8 fold,11.1 fold
"CC1(C)S[C@@H]2[C@H](N)C(=O)N2[C@H]1C(=O)O [6-APA, 6-aminopenicillanic acid, reference compound]",1.4 fold,,,
